Series [1] deals with pS6K1 (p-p70 S6 Kinase (Thr389)) in MCF-7 cells. Put plainly: AlphaLISA Ultra pS6K1 Assay. The class given is cell-based. The following applies: Homo sapiens, 1.5 h; MCF7 cells, 90 min. An outline of the steps: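 MCF-7 cells were seeded for 20–24 h, refed with fresh medium for 2 h, then treated with compound for 90 min at 0.5% final DMSO. Lysates were frozen at −80 °C, thawed and assayed by AlphaLISA with acceptor then donor beads, 2 h each.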

Series [2] relates to pAKT (p-Akt 1/2/3 (Ser473)) in MCF-7 cells. Put plainly: AlphaLISA Ultra pAKT Assay. It is filed as cell-based. The following applies: Homo sapiens, 1.5 h; MCF7 cells, 90 min. The method, then:
AlphaLISA Ultra pAKT Assay
1. MCF-7 cells in Corning 3701 plate and incubate for 20˜24 hour.
16,000˜20,000 cells will be seeded in 36 μL medium per well.
2. Change the culture medium with fresh medium and incubate for another 90 minutes.
3. […]
4. Aspirate […] by HAMILTON, 10 μL rest per well.
5. Add 10 μL 2× lysis buffer using HAMILTON; total volume in wells is 20 μL. Allow cells to shake for 30 min. Cover plate by plastic foil and store plate at −80° C. up to analysis.
6. Thaw cell lysate at RT and transfer 10 ul lysate to assay plate (Optiplate-384).
7. Add 5 μL acceptor beads into assay plate and incubation for 2 hours
8. Add 5 μL donor beads and incubation for 2 hours
9. Count the plate by EnSpire Multimode Plate Reader
(Alpha assays give light when donor and acceptor beads are brought close together.)

Series [3] can be described thus: Solubility in 100 mM phosphate buffer (pH 7.4). The class given is physicochemical. The following applies: pH 7.4, aqueous buffer. An excerpt:
The compound numbers correspond to the compound numbers in Table 1.

The next series concerns mTORC1 over mTORC2. Put plainly: mTORC1 selectivity over mTORC2 at 24 hrs (Western blot based pS6K1 and pAKT assay). It is filed as cell-based. The following applies: 24 hrs.
For series [4], the system named is mTORC1 pathway (pS6K1 T389) in PC3 cells. In words: Western blot, mTORC1 pathway (pS6K1) in PC3 cells. It is filed as cell-based. The following applies: PC3 cells, 24 hours. On the procedure:
(§1) Western Blot Based pS6K1 and pAKT Assay at 24 and 48 Hour Timepoints
(§2) 1. Seed six well plate with 500,000 PC3 cells per well and incubate for 20˜24 hour.
(§3) 2. Add compounds into the cell plate. Incubate for 24 to 48 hours.
(§4) 4. Plate is placed on ice and the media is removed via aspiration. The wells are washed with 1 mL of 1× PBS and then fully aspirated.
(§5) 5. 110 μL of 1% Triton Lysis Buffer is added and each well is scraped vigorously.
(§6) 6. Cell homogenates are transferred to 1.5 mL eppendorf tubes on ice and spun down at 4° C. for 10 minutes at 10,000 rpm.
(§7) 9. The membranes were washed 3× with TBS-T with a 5 minute incubation between each wash then incubated with secondary antibody (LiCor IRDye 800 Donkey Anti Rabbit) for at least 30 minutes.
(§8) 10. The membranes were washed 3× with TBS-T with a 5 minute incubation between each wash.
(§9) 11. The gels were then incubated for 5 minutes with PBS at room temperature then imaged using a Li-Cor.
(§10) The methods employed were substantially similar to those described above. Compounds were evaluated in PC3 cells, Jurkat cells, wild-type mouse embryotic fibroblast (MEF) cells, tuberous sclerosis 2 (TSC2) negative (TSC −/−) MEF cells, and tuberous sclerosis 2 (TSC2) positive (TSC +/+) MEF cells. Cells were incubated with compounds of the present invention for various time periods (e.g., 5 minutes, 15 minutes, 30 minutes, 90 minutes, 24 hours, or 48 hours), and evaluated according to known methodologies, such as those herein described.
(In general: Immunoblotting shows a protein as a band on a membrane.)

The subject of series [5] is mTORC2 pathway (Akt phosphorylation) in PC3 cells. In words: Western blot, mTORC2 pathway (pAkt) in PC3 cells. The following applies: 24 hours. It is filed as cell-based. The method, then: as §1, §2, §3, §4, §5, §6, §7, §8, §9, §10

The results in this text go back to patent US11944605B2, “Rapamycin analogs and uses thereof” (Janssen Pharmaceutica NV, priority 2018, dated 2024).

In brackets after ≈: the same amount, converted by molar mass. Entries after “also recorded” stand apart in the source; their conditions may differ.

As usually defined, the IC50 is the point on the concentration scale where inhibition reaches its midpoint. Usually solubility stands for the concentration that dissolves in the medium under given conditions.

Turning to `CO[C@@H]1C[C@H](C[C@@H](C)[C@@H]2CC(=O)[C@H](C)/C=C(\C)[C@@H](O)[C@@H](OC)C(=O)[C@H](C)C[C@H](C)/C=C/C=C/C=C(\C)[C@@H](OCCOCCOCCO)C[C@@H]3CC[C@@H](C)[C@@](O)(O3)C(=O)C(=O)N3CCCC[C@H]3C(=O)O2)CC[C@H]1O` [Compound I-29], the IC50 was under 0.1 nM in series [1] and at least 100 nM in series [2]. In series [3], the solubility was in the range of 30 to 60 µM (≈ 31 to 61.9 µg/mL).
On to `CO[C@@H]1C[C@H](C[C@@H](C)[C@@H]2CC(=O)[C@H](C)/C=C(\C)[C@@H](O)[C@@H](OC)C(=O)[C@H](C)C[C@H](C)/C=C/C=C/C=C(\C)[C@H](OCCOCCOCCO)C[C@@H]3CC[C@@H](C)[C@@](O)(O3)C(=O)C(=O)N3CCCC[C@H]3C(=O)O2)CC[C@H]1O` [Compound I-30], for which the IC50 in series [1] is 0.1 to 1 nM; in series [2] it was at least 100 nM. In series [3], the solubility was over 60 µM.
Take `CO[C@@H]1C[C@H](C[C@@H](C)[C@@H]2CC(=O)[C@H](C)/C=C(\C)[C@@H](O)[C@@H](OC)C(=O)[C@H](C)C[C@H](C)/C=C/C=C/C=C(\C)C(OCC3COCCOCCOCCOCCOCCO3)C[C@@H]3CC[C@@H](C)[C@@](O)(O3)C(=O)C(=O)N3CCCC[C@H]3C(=O)O2)CC[C@H]1O` (some centres unmarked) [I-1]: the IC50 in series [1] was 0.1 to 1 nM; in series [2] it was at least 100 nM. The “mTORC1 selective @ 24 hrs” value in the series on mTORC1 over mTORC2 is recorded as “YES”. In addition, the solubility in series [3] fell in the range of 30 to 60 µM (≈ 35.3 to 70.6 µg/mL).
Regarding `CO[C@@H]1C[C@H](C[C@@H](C)[C@@H]2CC(=O)[C@H](C)/C=C(\C)[C@@H](O)[C@@H](OC)C(=O)[C@H](C)C[C@H](C)/C=C/C=C/C=C(\C)C(OCC3COCCOCCOCCOCCO3)C[C@@H]3CC[C@@H](C)[C@@](O)(O3)C(=O)C(=O)N3CCCC[C@H]3C(=O)O2)CC[C@H]1O` (some centres unmarked) [I-3], the half-inhibitory concentration (IC50) in series [1] was 0.1 to 1 nM; in series [2], at least 100 nM. Further, the “mTORC1 selective @ 24 hrs” value with mTORC1 over mTORC2 was “YES”. In series [3], this compound registered a solubility of 30 to 60 µM (≈ 34 to 67.9 µg/mL).
For the compound `CO[C@@H]1C[C@H](C[C@@H](C)[C@@H]2CC(=O)[C@H](C)/C=C(\C)[C@@H](O)[C@@H](OC)C(=O)[C@H](C)C[C@H](C)/C=C/C=C/C=C(\C)C(OCC3COCCOCCOCCO3)C[C@@H]3CC[C@@H](C)[C@@](O)(O3)C(=O)C(=O)N3CCCC[C@H]3C(=O)O2)CC[C@H]1O` (some centres unmarked) [I-10], the 50% inhibitory concentration (IC50) in series [1] was under 0.1 nM; in series [2], at least 100 nM. For the same compound, the “mTORC1 selective @ 24 hrs” value in the series with mTORC1 over mTORC2 is given as “YES”.
For `COCCOCCOC1C[C@@H]2CCC(C)C(O)(O2)C(=O)C(=O)N2CCCC[C@H]2C(=O)OC(C(C)CC2CCC(O)C(OC)C2)CC(=O)C(C)/C=C(\C)C(O)C(OC)C(=O)C(C)CC(C)/C=C/C=C/C=C/1C` (some centres unmarked) [I-17], the IC50 in series [1] was 0.1 to 1 nM; in series [2], at least 100 nM. In addition, the “mTORC1 selective @ 24 hrs” value in the series on mTORC1 over mTORC2 is reported as “YES”. Also, the solubility in series [3] fell in the range of 30 to 60 µM (≈ 30.1 to 60.1 µg/mL).
Turning to `CO[C@@H]1C[C@H](C[C@@H](C)[C@@H]2CC(=O)[C@H](C)/C=C(\C)[C@@H](O)[C@@H](OC)C(=O)[C@H](C)C[C@H](C)/C=C/C=C/C=C(\C)C(OCCOCCOCCOCCO)C[C@@H]3CC[C@@H](C)[C@@](O)(O3)C(=O)C(=O)N3CCCC[C@H]3C(=O)O2)CC[C@H]1OCCO` (stereo partly drawn) [I-22, (21E,23E,25E,26E,38R,39S,40R,41R,42S,45S,47S,49R,50R,59R)-49, 59-dihydroxy-46-[2-[2-[2-(2-hydroxyethoxy)ethoxy]ethoxy]ethoxy]-47-[(1R)-2-[(1S,2R, 3R)-3-(2-hydroxyethoxy)-2-methoxy-cyclohexyl]-1-methyl-ethyl]-50-methoxy-38,39,40,41,51,52-hexamethyl-70, 71-dioxa-60-azatricyclohexatriaconta-21,23,25(51),26(52)-tetraene-53, 54,55,56,57-pentone], the IC50 in series [1] is 0.1 to 1 nM; in series [2] it was at least 100 nM. Besides, in the series on mTORC1 over mTORC2, the “mTORC1 selective @ 24 hrs” value is reported as “YES”.
Regarding `CO[C@@H]1C[C@H](C[C@@H](C)[C@@H]2CC(=O)[C@H](C)/C=C(\C)[C@@H](O)[C@@H](OC)C(=O)[C@H](C)C[C@H](C)/C=C/C=C/C=C(\C)C(OCCOCCO)C[C@@H]3CC[C@@H](C)[C@@](O)(O3)C(=O)C(=O)N3CCCC[C@H]3C(=O)O2)CC[C@H]1OCCO` (stereo partly drawn) [I-23, (21E,23E,25E,26E,34R,35S,36R,37R,38S,41S,43S,45R,46R,55R)-45,55-dihydroxy-42-[2-(2-hydroxyethoxy)ethoxy]-43-[(1R)-2-[(1S,2R,3R)-3-(2-hydroxyethoxy)-2-methoxy-cyclohexyl]-1-methyl-ethyl]-46-methoxy-34, 35,36,37,47,48-hexamethyl-66,67-dioxa-56-azatricyclohexatriaconta-21, 23,25(47),26(48)-tetraene-49,50,51,52,53-pentone], the figures for the IC50 in series [1] and in series [2] were under 0.1 nM and at least 100 nM, respectively. Besides, the “mTORC1 selective @ 24 hrs” value in the series with mTORC1 over mTORC2 is reported as “YES”.
As to `CO[C@@H]1C[C@H](C[C@@H](C)[C@@H]2CC(=O)[C@H](C)/C=C(\C)[C@@H](O)[C@@H](OC)C(=O)[C@H](C)C[C@H](C)/C=C/C=C/C=C(\C)C(OCC(O)CO)C[C@@H]3CC[C@@H](C)[C@@](O)(O3)C(=O)C(=O)N3CCCC[C@H]3C(=O)O2)CC[C@H]1O` (stereo partly drawn) [I-25, (21E,23E,25E,26E,30R,31S,32R,33R,35R,37S,39S,40S,41R,42R,52S)-39-(2,3-dihydroxypropoxy)-41, 52-dihydroxy-40-[(1S)-2-[(1S,3R,4R)-4-hydroxy-3-methoxy-cyclohexyl]-1-methyl-ethyl]-42-methoxy-30, 31,32,33,43,44-hexamethyl-64,65-dioxa-53-azatricyclohexatriaconta-21, 23,25(43),26(44)-tetraene-45,46,47,48,49-pentone], the figures for the half-inhibitory concentration (IC50) in series [1] and in series [2] were 0.1 to 1 nM and at least 100 nM, respectively. Moreover, the “mTORC1 selective @ 24 hrs” value in the series with mTORC1 over mTORC2 was “YES”.
Compound `CO[C@@H]1C[C@H](C[C@@H](C)[C@@H]2CC(=O)[C@H](C)/C=C(\C)[C@@H](O)[C@@H](OC)C(=O)[C@H](C)C[C@H](C)/C=C/C=C/C=C(\C)C(OCCOCCOCCOCCOCCOCCOCCO)C[C@@H]3CC[C@@H](C)[C@@](O)(O3)C(=O)C(=O)N3CCCC[C@H]3C(=O)O2)CC[C@H]1OCCO` (stereo partly drawn) [I-99, (21E,23E,25E,26E,44R,45S,46R,47R,49S,51S,54S,55R,56R,65R)-55, 65-dihydroxy-53-[2-[2-[2-[2-[2-[2-(2-hydroxyethoxy)ethoxy]ethoxy]ethoxy]ethoxy]ethoxy]ethoxy]-54-[(1R)-2-[(1S, 3R,4R)-4-(2-hydroxyethoxy)-3-methoxy-cyclohexyl]-1-methyl-ethyl]-56-methoxy-44, 45,46,47,57,58-hexamethyl-76,77-dioxa-66-azatricyclohexatriaconta-21, 23,25(57),26(58)-tetraene-59,60,61,62,63-pentone] registered an IC50 in series [1] of 0.1 to 1 nM. Also, the “mTORC1 selective @ 24 hrs” value in the series with mTORC1 over mTORC2 is recorded as “YES”. Also, in series [4], the “inhibition of the mTORC1 pathway” value is recorded as “appreciable concentration dependent inhibition; also recorded: moderate concentration dependent inhibition”. For the same compound, the “inhibition of mTORC2 (Akt phosphorylation)” value in series [5] was “do not inhibit”.
Take `CO[C@@H]1C[C@H](C[C@@H](C)[C@@H]2CC(=O)[C@H](C)/C=C(\C)[C@@H](O)[C@@H](OC)C(=O)[C@H](C)C[C@H](C)/C=C/C=C/C=C(\C)C(OCC(COCCC#N)(COCCC#N)COCCC#N)C[C@@H]3CC[C@@H](C)[C@@](O)(O3)C(=O)C(=O)N3CCCC[C@H]3C(=O)O2)CC[C@H]1O` (stereo partly drawn) [I-101, 3-[2,2-bis(2-cyanoethoxymethyl)-3-[[(21E, 23E,25E,26E,41R,42S,43R,44R,46S,48S,51S,52R,53R,62R)-52,62-dihydroxy-51-[(1R)-2-[(1S, 3R,4R)-4-hydroxy-3-methoxy-cyclohexyl]-1-methyl-ethyl]-53-methoxy-41, 42,43,44,54,55-hexamethyl-56,57,58,59,60-pentaoxo-76,77-dioxa-67-azatricyclohexatriaconta-21, 23,25(54),26(55)-tetraen-50-yl]oxy]propoxy]propanenitrile]: in series [1], the IC50 lay within 0.1 to 1 nM. Further, the “mTORC1 selective @ 24 hrs” value with mTORC1 over mTORC2 is recorded as “YES”. The “inhibition of the mTORC1 pathway” value in series [4] is given as “strong inhibition; also recorded: appreciable concentration dependent inhibition; also recorded: moderate concentration dependent inhibition”. Besides, the “inhibition of mTORC2 (Akt phosphorylation)” value in series [5] is on record as “do not inhibit”.
